Square brackets hold non-standard residues; d marks the D form. Peptide text beside a SMILES is read from it. tBuAla = CC(C)(C)C[C@H](N)C(=O)O; Nle = CCCC[C@H](N)C(=O)O
Biological target: T1, human eIF4E (Homo sapiens, UniProt P06730)
T1 construct: made in house
Test: biochemical assay of peptide binding to human eIF4E (displacement of biotin labeled 4G2 peptide)
Settings: HH-eIF4E, biotin labeled 4G2 peptide; read-out: Binding affinities expressed as IC50
Protocol: A biochemical assay was run to test peptide binding to human eIF4E.
Human eIF4E (aa 28-217, SEQ ID NO: 87) with a C-terminal His tag (HH-eIF4E, SEQ ID NO: 88) was expressed in E. coli in inclusion bodies. The protein was solubilized with 8 M urea and purified under denaturing conditions using nickel-charged HisTrap HP columns (GE Healthcare). The protein was refolded by diluting to approximately 0.25 mg/mL with 6 M urea, 20 mM Hepes pH 7.0, 500 mM NaCl, 1 mM DTT, 1 mM EDTA, and 0.5 M arginine.HCl, and then dialyzing overnight into the same buffer without the urea. The protein was further dialyzed into 20 mM Hepes pH 6.5, 50 mM NaCl, 1 mM EDTA, and 1 mM DTT, filtered, and then concentrated using Hitrap SP sepharose FF columns (GE Healthcare). The protein was dialyzed into 20 mM Hepes pH 7.0, 500 mM NaCl, 5 mM DTT, and 10% glycerol and stored at −80° C. until use.
Test peptides (1.6 mM stock in DMSO) were diluted 3 fold in series in DMSO and solutions were diluted 4 fold in Assay Buffer (50 mM NaPi, pH 6.5, 50 mM KCl, 1 mM DTT, 0.004% NP40 and 0.5 mg/ml gammaglobulin). Six microliters per well of diluted peptide solutions and 12 microliters per well of 187.5 nM HH-eIF4E in Assay Buffer were added to 384-well polypropylene microplates (Matrix, Thermal Scientific). Twelve microliters per well of 187.5 nM biotin labeled 4G2 peptide (Ac-[…]Aha-Bio)-NH2 (SEQ ID NO: 91) 1:2 TFA) in Assay Buffer was added. The samples were incubated at room temperature for 20 minutes.
Six microliters per well of 4.8 nM Eu-streptavidin (Columbia Biosciences) and 48 nM Allophycocyanin-anti His antibody (Columbia Biosciences) in Assay Buffer (without DTT) were then added and the samples were incubated at room temperature for 30 min. Assay signals were monitored by reading emission fluorescence at 665 nm on an Envision Reader (PerkinElmer Life and Analytical Sciences). IC50 values were calculated using Condoseo software (Genedata AG, Basel, Switzerland).

T1 sequence (P06730 with tags, fused parts or gaps): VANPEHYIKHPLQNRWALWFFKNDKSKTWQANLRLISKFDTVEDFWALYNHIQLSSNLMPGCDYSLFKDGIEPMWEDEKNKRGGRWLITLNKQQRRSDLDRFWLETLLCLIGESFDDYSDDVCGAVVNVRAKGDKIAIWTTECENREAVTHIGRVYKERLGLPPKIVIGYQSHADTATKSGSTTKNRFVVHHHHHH

IC50 [µM] | Molecule
0.21 | CCCC[C@H](NC(=O)[C@H](Cc1ccccc1)NC(=O)[C@H](CCC(N)=O)NC(=O)[C@H](Cc1ccccc1)NC(=O)[C@H](C)NC(=O)[C@H](CC(C)C)NC(=O)[C@H](CC(C)C)NC(=O)[C@H](Cc1ccccc1)NC(=O)[C@H](CCC(=O)O)NC(=O)[C@H](CCCNC(=N)N)NC(=O)[C@H](CC(=O)O)NC(=O)[C@H](Cc1ccc(O)cc1)NC(=O)[C@H](CCCNC(=N)N)NC(=O)[C@H](CCCCN)NC(C)=O)C(=O)N[C@H](C(=O)N[C@@H](Cc1ccc(O)cc1)C(=O)N[C@@H](CC(=O)O)C(=O)N[C@@H](CC(C)C)C(=O)NCC(=O)N[C@@H](CC(C)C)C(=O)N[C@@H](CCCNC(=N)N)C(=O)N[C@@H](CCCNC(=N)N)C(=O)N[C@@H](CC(C)C)C(=O)N[C@@H](CCCNC(=N)N)C(=O)N[C@@H](CCC(N)=O)C(=O)N[C@@H](CCCNC(=N)N)C(=O)N[C@@H](CCCNC(=N)N)C(=O)N[C@@H](CCCNC(=N)N)C(=O)N[C@@H](CC(C)C)C(=O)N[C@@H](CCCNC(=N)N)C(=O)N[C@@H](CCCNC(=N)N)C(N)=O)C(C)C [SEQ ID NO: 7] (Ac-KRYDREFLLAFQF[Nle]VYDLGLRRLRQRRRLRR-NH2)

Same assay, conditions: IC50 (μM), Table 2, cell-penetrating peptides with the Y----LL-F motif

Molecule | IC50 [µM]
Ac-MVKYKIASLLLFLFVAMWSDVKLKKKRPKP-NH2 [SEQ ID NO: 18] | 6.71
Ac-MVKYKIGSLLLFLFVAMWSDVGLCKKRPKP-NH2 [SEQ ID NO: 12] | 4.13
Ac-MVKSKIYSWILLLFFAMWSDVGLCKKRPKP-NH2 [SEQ ID NO: 15] | 5.2
Ac-MVKSKIYSWILLLFFAMWSDVKLKKKRPKP-NH2 [SEQ ID NO: 21] | 6.85
Ac-MYKSKILLWFLVLFVAMWSDVALAKKRPKP-NH2 [SEQ ID NO: 19] | 7.21
Ac-MVKSKYGSWILLLFVAMWSDVGLCKKRPKP-NH2 [SEQ ID NO: 13] | 6.89
Ac-MVKYKIASLLLFLFVAMWSDVALAKKRPKP-NH2 [SEQ ID NO: 17] | 12.5
Ac-MVKSKIYSWILLLFFAMWSDVALAKKRPKP-NH2 [SEQ ID NO: 20] | 9.96
Ac-MYKSKILLWFLVLFVAMWSDVGLCKKRPKP-NH2 [SEQ ID NO: 14] | 3.62

Same assay, conditions: IC50 (μM), Table 2a, cell penetrating peptides with the Y----LL-F and YWLLALFVY motifs

Molecule | IC50 [µM]
Ac-NLAYWLLALFVYMWTDLRLFKKRPKP-NH2 [SEQ ID NO: 35] | 5.04
CCCC[C@H](NC(=O)[C@H](CC(C)C)NC(=O)[C@H](CC(=O)O)NC(=O)[C@@H](NC(=O)[C@H](Cc1c[nH]c2ccccc12)NC(=O)[C@H](CCSC)NC(=O)[C@H](Cc1ccc(O)cc1)NC(=O)[C@@H](NC(=O)[C@H](Cc1ccccc1)NC(=O)[C@H](CC(C)C)NC(=O)[C@H](C)NC(=O)[C@H](CC(C)C)NC(=O)[C@H](CC(C)C)NC(=O)[C@H](Cc1c[nH]c2ccccc12)NC(=O)[C@H](Cc1ccc(O)cc1)NC(=O)[C@H](CCCCN)NC(=O)[C@H](CC(C)C)NC(=O)[C@H](CCCCN)NC(=O)[C@H](C)NC(=O)[C@H](CCSC)NC(C)=O)C(C)C)[C@@H](C)O)C(=O)N[C@@H](CC(C)C)C(=O)N[C@@H](Cc1ccccc1)C(=O)N[C@@H](CCCCN)C(=O)N[C@@H](CCCCN)C(=O)N[C@@H](CCCNC(=N)N)C(=O)N1CCC[C@H]1C(=O)N[C@@H](CCCCN)C(=O)N1CCC[C@H]1C(N)=O [SEQ ID NO: 29] (Ac-MAKLKYWLLALFVYMWTDL[Nle]LFKKRPKP-NH2) | 7.39
Ac-MANLAYWLLALFVYMFTDLRLFKKRPKP-NH2 [SEQ ID NO: 42] | 3.91
Ac-LAYWLLALFVYMWTDLRLAKKRPKP-NH2 [SEQ ID NO: 33] | 6.24
Ac-MANLAYWLLALFVYRWTDLRLFKKRPKP-NH2 [SEQ ID NO: 41] | 3.48
Ac-YWLLALFVYMWTDLRLFKKRPKP-NH2 [SEQ ID NO: 37] | 2.9
Ac-MAALAYWLLALFVYMWTDLLLFKKRPKP-NH2 [SEQ ID NO: 27] | 10.7
Ac-LAYWLLALFVYMWTDLRLFKKRPKP-NH2 [SEQ ID NO: 31] | 4.35
Ac-ANLAYWLLALFVYMWTDLRLFKKRPKP-NH2 [SEQ ID NO: 34] | 2.22
CCCC[C@H](NC(=O)[C@H](Cc1ccc(O)cc1)NC(=O)[C@@H](NC(=O)[C@H](Cc1ccccc1)NC(=O)[C@H](CC(C)C)NC(=O)[C@H](C)NC(=O)[C@H](CC(C)C)NC(=O)[C@H](CC(C)C)NC(=O)[C@H](Cc1c[nH]c2ccccc12)NC(=O)[C@H](Cc1ccc(O)cc1)NC(=O)[C@H](C)NC(=O)[C@H](CC(C)C)NC(=O)[C@H](CC(N)=O)NC(=O)[C@H](C)NC(=O)[C@H](CCSC)NC(C)=O)C(C)C)C(=O)N[C@@H](Cc1c[nH]c2ccccc12)C(=O)N[C@H](C(=O)N[C@@H](CC(=O)O)C(=O)N[C@@H](CC(C)C)C(=O)N[C@@H](CCCNC(=N)N)C(=O)N[C@@H](CC(C)C)C(=O)N[C@@H](Cc1ccccc1)C(=O)N[C@@H](CCCCN)C(=O)N[C@@H](CCCCN)C(=O)N[C@@H](CCCNC(=N)N)C(=O)N1CCC[C@H]1C(=O)N[C@@H](CCCCN)C(=O)N1CCC[C@H]1C(N)=O)[C@@H](C)O [SEQ ID NO: 39] (Ac-MANLAYWLLALFVY[Nle]WTDLRLFKKRPKP-NH2) | 1.75
Ac-AYWLLALFVYMWTDLRLFKKRPKP-NH2 [SEQ ID NO: 36] | 2.53
CSCC[C@H](NC(=O)[C@H](Cc1ccc(O)cc1)NC(=O)[C@@H](NC(=O)[C@H](Cc1ccccc1)NC(=O)[C@H](CC(C)C)NC(=O)[C@H](C)NC(=O)[C@H](CC(C)C)NC(=O)[C@H](CC(C)C)NC(=O)[C@H](Cc1c[nH]c2ccccc12)NC(=O)[C@H](Cc1ccc(O)cc1)NC(=O)[C@H](C)NC(=O)[C@H](CC(C)C)NC(C)=O)C(C)C)C(=O)N[C@@H](Cc1c[nH]c2ccccc12)C(=O)N[C@H](C(=O)N[C@@H](CC(=O)O)C(=O)N[C@@H](CC(C)C)C(=O)N[C@@H](CCCNC(=N)N)C(=O)N[C@@H](CC(C)C)C(=O)N[C@@H](CC(C)(C)C)C(=O)N[C@@H](CCCCN)C(=O)N[C@@H](CCCCN)C(=O)N[C@@H](CCCNC(=N)N)C(=O)N1CCC[C@H]1C(=O)N[C@@H](CCCCN)C(=O)N1CCC[C@H]1C(N)=O)[C@@H](C)O [SEQ ID NO: 32] (Ac-LAYWLLALFVYMWTDLRL[tBuAla]KKRPKP-NH2) | 4.73

Same assay, conditions: IC50 (μM), Table 3, cell-penetrating peptides without the Y----LL-F motif

Molecule | IC50 [µM]
Ac-LAYWLLALFVAMWTDLRLFKKRPKP-NH2 [SEQ ID NO: 49] | 1.99
CCCC[C@H](NC(=O)[C@H](CC(C)C)NC(=O)[C@H](CO)NC(=O)[C@H](C)NC(=O)[C@@H](NC(=O)[C@H](CCCCN)NC(=O)[C@H](Cc1ccc(O)cc1)NC(=O)[C@H](CCCCN)NC(=O)[C@@H](NC(=O)[C@H](CCSC)NC(C)=O)C(C)C)[C@@H](C)CC)C(=O)N[C@@H](CC(C)C)C(=O)N[C@@H](Cc1ccccc1)C(=O)N[C@@H](CC(C)C)C(=O)N[C@@H](Cc1ccccc1)C(=O)N[C@H](C(=O)N[C@@H](C)C(=O)N[C@@H](CCSC)C(=O)N[C@@H](Cc1c[nH]c2ccccc12)C(=O)N[C@@H](CO)C(=O)N[C@@H](CC(=O)O)C(=O)N[C@H](C(=O)N[C@@H](C)C(=O)N[C@@H](CC(C)C)C(=O)N[C@@H](C)C(=O)N[C@@H](CCCCN)C(=O)N[C@@H](CCCCN)C(=O)N[C@@H](CCCNC(=N)N)C(=O)N1CCC[C@H]1C(=O)N[C@@H](CCCCN)C(=O)N1CCC[C@H]1C(N)=O)C(C)C)C(C)C [SEQ ID NO: 45] (Ac-MVKYKIASL[Nle]LFLFVAMWSDVALAKKRPKP-NH2) | 3.06
Ac-WLLALFVYMWTDLRLFKKRPKP-NH2 [SEQ ID NO: 50] | 2.36
Ac-LLALFVYMWTDLRLFKKRPKP-NH2 [SEQ ID NO: 51] | 3.75

Same assay, conditions: Table 1, peptides which bind eIF4E but are not cell-penetrating; read-out: IC50

IC50 [µM] | Molecule
4.07 | CCCC[C@H](NC(=O)[C@H](Cc1ccccc1)NC(=O)[C@H](CCC(N)=O)NC(=O)[C@H](Cc1ccccc1)NC(=O)[C@H](C)NC(=O)[C@H](CC(C)C)NC(=O)[C@H](CC(C)C)NC(=O)[C@H](Cc1ccccc1)NC(=O)[C@H](CCC(=O)O)NC(=O)[C@H](CCCNC(=N)N)NC(=O)[C@H](CC(=O)O)NC(=O)[C@H](Cc1ccccc1)NC(=O)[C@H](CCCNC(=N)N)NC(=O)[C@H](CCCCN)NC(C)=O)C(N)=O [SEQ ID NO: 84] (Ac-KRFDREFLLAFQF[Nle]-NH2)
10.5 | Ac-KQYDREFLLDFQFMPA-NH2 [SEQ ID NO: 52]

Source: patent publication US9409961B2, “Cell penetrating peptides to target EIF4E” (Hoffmann-La Roche Inc., priority 2012, dated 2016)
